Assay results from US5290948A, “Process for producing polyhydroxylated piperidines and pyrrolidines and compounds thereof” (McNeilab, Inc., priority 1990, dated 1994).
Structures can show the parent of a compound that is named as a salt.

Legend:
β-Glycosidase = assay: Inhibition of lactose activity (β-glycosidase); assay type: biochemical, almonds
Experimental: (§1) The inhibition of maltase (sucrase) tests was carried out as recited hereinafter. Partially purified α-glycosidase was isolated from the rabbit's small intestine as described in the literature (B. L. Rhinehart et al. Life Sci. 1987, 41, 2325). The α-glycosidase activity was measured using […] as substrates. β-Glycosidase from almonds was obtained from Sigma (St. Louis), and β-glycosidase activity was measured using lactose as a substrate. The incubation mixture (200 μL) consisted of substrate (100 mM), enzyme, 100 mM NaCl, 0.1 mM Na2 EDTA and either 10 mM MOPS (for pH 7), 10 mM maleic acid (for pH 6), or 10 Mm acetate (for pH 5) as buffer (adjusted to their respective pH with NaOH). Compounds dissolved in dimethylsulfoxide were added (final concentration of dimethylsulfoxide in the assay was 1%). The assay was performed at 37 deg C. for 30 minutes and arrested by incubation for 3 min at 85 deg C. After centrifugation for 2 min at 10,000 g, the supernatant was collected and processed for glucose determination. Glucose was measured with the hexokinase method (kit obtained from Boehringer Mannheim) on an EPOS 5060 EPPENDORF autoanalyser.

HIV-1 = assay: Anti-HIV-1 activity in MT-4 cells; assay type: cell-based; conditions: for HIV1/HIV2 Act. (HIV1): Table 1, MT-4 cells, viable cells after five days; for inhibited the growth of HIV-1: at high concentrations
Experimental: Anti-HIV-1 activity was tested in MT-4 cells as described previously (Pauwels et al. J. Virol Methods 1987, 11, 171). The cells were either infected with HIV-1 or mock infected and incubated in the presence of the test compounds. The number of viable cells was then determined after five days (Pauwels et al. J. Virol Methods 1988, 20, 309).

Maltase = assay: Inhibition of maltase (α-glycosidase, maltose-cleaving activity); assay type: biochemical, rabbit; conditions: for Inh. of Maltase: at 100 µM (Table 1 head)
Experimental: […] In addition compounds 1 and 2 were screened at a dose of 1 mM. These compounds are described in Examples 6, 81 10, 11 and 12. […] Compounds 1, 2, 6 and 12 are novel compounds having glucitol stereochemistry. Compound 11 is likewise novel and it has the iditol stereochemistry.
as §1

glycosidase = assay: Glycosidase inhibition, overall statement; assay type: biochemical
Experimental: Compounds 6, 11 and 12 in Table 1 were screened at a single dose (100 micromolar) against sucrase and maltase, two glycosidase enzymes. In addition compounds 1 and 2 were screened at a dose of 1 mM. These compounds are described in Examples 6, 81 10, 11 and 12. […] Compounds 1, 2, 6 and 12 are novel compounds having glucitol stereochemistry. Compound 11 is likewise novel and it has the iditol stereochemistry.
as §1

HIV2 = assay: Anti-HIV-2 activity; assay type: cell-based; conditions: Table 1
Sucrase = biological target: T1, Sucrase (Oryctolagus cuniculus, UniProt P07768); assay: Inhibition of sucrase (α-glycosidase); assay type: biochemical, rabbit; conditions: at 100 mM (Table 1 head)
T1 construct: Partially purified α-glycosidase was isolated from the rabbit's small intestine; from tissue; host or cells: rabbit small intestine, partially purified
T1 sequence (P07768 1008-1827 limits assumed): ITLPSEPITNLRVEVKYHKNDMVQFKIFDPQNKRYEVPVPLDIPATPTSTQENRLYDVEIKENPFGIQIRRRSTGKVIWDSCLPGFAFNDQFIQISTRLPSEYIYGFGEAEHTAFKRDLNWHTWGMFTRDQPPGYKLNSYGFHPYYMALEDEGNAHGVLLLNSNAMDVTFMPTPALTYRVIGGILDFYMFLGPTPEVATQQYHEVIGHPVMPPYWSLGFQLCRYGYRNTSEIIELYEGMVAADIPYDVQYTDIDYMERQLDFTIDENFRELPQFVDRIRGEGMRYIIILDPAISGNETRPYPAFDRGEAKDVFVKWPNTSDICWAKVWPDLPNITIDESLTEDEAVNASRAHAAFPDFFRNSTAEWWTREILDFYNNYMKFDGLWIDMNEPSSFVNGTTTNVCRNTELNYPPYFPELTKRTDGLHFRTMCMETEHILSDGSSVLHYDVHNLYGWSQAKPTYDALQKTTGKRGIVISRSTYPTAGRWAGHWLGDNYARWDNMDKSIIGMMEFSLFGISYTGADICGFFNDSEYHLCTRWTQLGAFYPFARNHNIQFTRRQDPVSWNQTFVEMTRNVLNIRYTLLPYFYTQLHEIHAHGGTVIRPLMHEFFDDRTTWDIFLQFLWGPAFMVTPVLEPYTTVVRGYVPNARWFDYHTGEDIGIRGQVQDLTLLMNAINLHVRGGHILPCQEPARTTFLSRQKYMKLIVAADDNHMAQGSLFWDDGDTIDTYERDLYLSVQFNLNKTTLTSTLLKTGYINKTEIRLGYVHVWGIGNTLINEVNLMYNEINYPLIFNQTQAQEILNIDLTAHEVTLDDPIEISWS
T1 sequence (P07768 2-1007 partner limits assumed): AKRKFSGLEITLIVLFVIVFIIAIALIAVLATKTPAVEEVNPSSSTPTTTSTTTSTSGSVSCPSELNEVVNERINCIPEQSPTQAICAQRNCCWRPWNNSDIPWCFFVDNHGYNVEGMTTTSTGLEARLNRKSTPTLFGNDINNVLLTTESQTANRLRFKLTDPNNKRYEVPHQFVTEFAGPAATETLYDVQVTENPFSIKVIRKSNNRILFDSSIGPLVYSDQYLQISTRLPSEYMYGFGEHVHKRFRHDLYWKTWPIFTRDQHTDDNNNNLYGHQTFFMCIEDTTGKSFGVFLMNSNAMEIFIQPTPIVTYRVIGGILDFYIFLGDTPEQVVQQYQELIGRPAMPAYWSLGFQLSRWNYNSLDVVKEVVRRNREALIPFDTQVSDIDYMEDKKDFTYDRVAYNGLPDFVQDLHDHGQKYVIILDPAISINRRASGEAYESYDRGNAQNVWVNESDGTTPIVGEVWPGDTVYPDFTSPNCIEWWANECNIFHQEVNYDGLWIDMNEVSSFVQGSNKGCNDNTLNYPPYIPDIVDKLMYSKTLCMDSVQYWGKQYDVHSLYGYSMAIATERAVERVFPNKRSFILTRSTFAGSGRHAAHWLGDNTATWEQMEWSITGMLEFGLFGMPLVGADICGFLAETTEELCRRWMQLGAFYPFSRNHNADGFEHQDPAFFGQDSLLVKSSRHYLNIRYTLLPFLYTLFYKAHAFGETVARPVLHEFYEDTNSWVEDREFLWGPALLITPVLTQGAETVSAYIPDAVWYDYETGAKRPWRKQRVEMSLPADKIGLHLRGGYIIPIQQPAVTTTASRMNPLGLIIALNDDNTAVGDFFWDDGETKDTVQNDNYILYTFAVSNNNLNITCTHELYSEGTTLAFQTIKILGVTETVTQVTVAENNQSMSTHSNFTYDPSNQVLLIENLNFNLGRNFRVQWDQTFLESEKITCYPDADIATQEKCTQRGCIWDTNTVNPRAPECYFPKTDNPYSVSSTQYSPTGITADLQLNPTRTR
Experimental: […] In addition compounds 1 and 2 were screened at a dose of 1 mM. These compounds are described in Examples 6, 81 10, 11 and 12.
as §1

Row | Compound | HIV1/HIV2 Act. (HIV1) (HIV-1) | Inh. of Maltase (Maltase) | glycosidase inhibition (in words) (glycosidase) | further results
1 | OC[C@@H]1[C@@H](O)[C@H](O)[C@H](CO)N1C(c1ccccc1)c1ccccc1 [Compound 1] | Weak anti-HIV1 act. | 0% | glycosidase inhibitors | inhibition of lactose activity (β-Glycosidase; at 10^-4 M, pH 5 (footnote 1)): 58%; inhibited the growth of HIV-1 (HIV-1): inhibited the growth of HIV-1 at high concentrations; inhibition of maltase (Maltase; at 10^-3 M (footnote 1)): 40%
2 | OC[C@@H]1N[C@H](CO)[C@@H](O)[C@@H]1O [Compound 2, 2,5-Anhydro-2,5-imino-D-glucitol] | No anti-HIV1 act. | 0% | glycosidase inhibitors | inhibition of lactose activity (β-Glycosidase; at 10^-3 M, pH 5 (footnote 2)): 44%
3 | OC[C@@H]1[C@@H](O)[C@H](O)[C@@H](CO)N1C(c1ccccc1)c1ccccc1 [Compound 3, N-Benzhydryl-2,5-anhydro-2,5-imino-D-mannitol] | No anti-HIV1 act. | 0% |  | 
4 | OCC1[C@@H](O)[C@H](O)C(CO)N1CCCOc1ccc(F)cc1 (some centres unmarked) [Compound 8] | No anti-HIV1 act. | 0% |  | 
5 | OC[C@@H]1[C@@H](O)[C@H](O)[C@H](CO)N1c1ccc(F)cc1 [Compound 9, N-(4-Fluorophenyl)-2,5-anhydro-2,5-imino-D-glucitol] | No anti-HIV1 act. | 0% |  | 
6 | OC[C@@H]1[C@@H](O)[C@H](O)[C@@H](CO)N1c1ccc(F)cc1 [Compound 10] | No anti-HIV1 act. | 0% |  | 
7 | OC[C@H]1[C@@H](O)[C@H](O)[C@H](CO)N1c1ccc(F)cc1 [Compound 11] | No anti-HIV1 act. | 19% | glycosidase inhibitors | 
8 | OC[C@@H]1[C@@H](O)[C@H](O)[C@H](CO)N1CCCC(c1ccc(F)cc1)c1ccc(F)cc1 [Compound 12, N-[4,4-bis(4-Fluorophenyl)butyl]-2,5-anhydro-2,5-imino-D-glucitol tosylate] | Weak anti-HIV1 act. | 20% | glycosidase inhibitors | inhibited the growth of HIV-1 (HIV-1): inhibited the growth of HIV-1 at high concentrations
9 | CCOC(=O)N1CCC(N2C(CO)[C@@H](O)[C@H](O)C2CO)CC1 (some centres unmarked) [Compound 13] | No anti-HIV1 act. | 0% |  | 
10 | OCCCN1C(CO)[C@@H](O)[C@H](O)C1CO (some centres unmarked) [Compound 15] |  | 0% |  | 
11 | CCCCN1[C@H](CO)[C@@H](O)[C@H](O)[C@@H]1CO [Compound 16] |  | 0% |  | 
12 | OCC1[C@@H](O)[C@H](O)C(CO)N1CCc1ccc(F)cc1 (some centres unmarked) [Compound 17] | No anti-HIV1 act. |  |  | 
13 | COC1CN(CCCOc2ccc(F)cc2)CCC1N1C(CO)[C@@H](O)[C@H](O)[C@H]1CO (some centres unmarked) [Compound 22] | No anti-HIV1 act. | 0% |  | 
14 | N-Stearyl-2,5-anhydro-2,5-imino-D-glucitol [Compound 6] | Weak anti-HIV1 and HIV2 | 1% | glycosidase inhibitors | HIV1/HIV2 Act. (HIV2) (HIV2): Weak anti-HIV1 and HIV2; Inh. of (Sucrase) (Sucrase): 6%; inhibited the growth of HIV-1 (HIV-1): inhibited the growth of HIV-1 at high concentrations
